Experiments:
[1] = target: CabPB (Streptococcus mutans, UniProt Q8DSR3); assay: DRaCALA, […]-labelled c-di-AMP on nitrocellulose; format: binding
[2] = target: CabPA (Streptococcus mutans, UniProt Q8DT33); assay: DRaCALA, […]-labelled c-di-AMP on nitrocellulose; format: binding

Q: For `Nc1ncnc2c1ncn2[C@@H]1O[C@@H]2COP(=O)(O)O[C@H]3[C@@H](O)[C@H](n4cnc5c(N)ncnc54)O[C@@H]3COP(=O)(O)O[C@H]2[C@H]1O` [c-di-AMP], which Kd [1] is on record?
A: 1.2 ± 0.2 µM

Q: What about the Kd [2] of the same molecule?
A: 7.8 ± 0.3 µM

Source: PMC5003771 (Molecular microbiology, 2015)
